The text below walks through data of patent publication US20080021026A1, “BENZOTHIOPHENE INHIBITORS OF RHO KINASE” (priority 2006, published 2008).

The target in this assay is T1, recombinant N-terminal GST-tagged human Rho kinase 2 (ROCK2, amino acids 1-552) (Homo sapiens, UniProt O75116).
T1 construct: ROCK2, amino acids 1-552; purchased Invitrogen Inc. PV3759
T1 sequence (O75116 1-552): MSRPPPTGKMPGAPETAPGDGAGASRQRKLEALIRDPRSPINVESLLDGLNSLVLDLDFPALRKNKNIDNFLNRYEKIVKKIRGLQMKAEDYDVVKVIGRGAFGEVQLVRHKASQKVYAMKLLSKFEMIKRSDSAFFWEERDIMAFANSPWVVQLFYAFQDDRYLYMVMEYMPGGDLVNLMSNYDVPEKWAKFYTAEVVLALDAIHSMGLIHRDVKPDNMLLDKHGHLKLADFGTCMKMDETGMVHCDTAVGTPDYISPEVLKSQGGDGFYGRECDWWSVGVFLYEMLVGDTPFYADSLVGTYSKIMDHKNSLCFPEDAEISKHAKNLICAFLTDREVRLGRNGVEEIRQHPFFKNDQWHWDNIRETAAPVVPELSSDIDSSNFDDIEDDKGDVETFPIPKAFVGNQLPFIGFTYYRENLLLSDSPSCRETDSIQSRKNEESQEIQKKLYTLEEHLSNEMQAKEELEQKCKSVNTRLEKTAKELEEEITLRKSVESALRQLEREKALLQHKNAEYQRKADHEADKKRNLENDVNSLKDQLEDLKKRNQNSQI
The assay is described as follows: In vitro Rho kinase assay (luciferase-based ATP consumption), ROCK2. The assay is classed as biochemical. The settings on record: recombinant GST-tagged human ROCK2, luciferase-based ATP consumption; read-out: ROCK2 IC50. A digest of the protocol: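 Luciferase-based luminescence of leftover ATP after 2 h at 30 °C, where inhibition raises signal, reports activity of GST-tagged ROCK2 (aa 1-552) at 0.82 μg/ml. Conditions: S6 peptide 100 μg/ml, […], pH 7.5 Tris buffer. Results given as percent of H-1152P control activity.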
`Cc1c(-c2ccnc(N)n2)sc2ccc(C(=O)N3CCc4ccccc4C3)cc12` [Example 498, Cc1c(sc2ccc(cc12)C(═O)N3CCc4ccccc4C3)-c5ccnc(N)n5]: the IC50 is less than 5 µM. Under `CCN(Cc1ccccc1)C(=O)c1ccc2sc(-c3ccnc(N)n3)c(C)c2c1` [Example 499, CCN(Cc1ccccc1)C(═O)c2ccc3sc(c(C)c3c2)-c4ccnc(N)n4] stands less than 5 µM; under `Cc1c(-c2ccnc(N)n2)sc2ccc(C(=O)N(C)CCc3ccccc3)cc12` [Example 500, CN(CCc1ccccc1)C(═O)c2ccc3sc(c(C)c3c2)-c4ccnc(N)n4], less than 5 µM; under `Cc1c(-c2ccnc(N)n2)sc2ccc(C(=O)N(C)CCc3ccccn3)cc12` [Example 501, CN(CCc1ccccn1)C(═O)c2ccc3sc(c(C)c3c2)-c4ccnc(N)n4], greater than 5 µM. Under `Cc1c(-c2ccnc(N)n2)sc2ccc(C(=O)N3CCCC4CCCCC43)cc12` (centres unmarked) [Example 502, Cc1c(sc2ccc(cc12)C(═O)N3CCCC4CCCCC34)-c5ccnc(N)n5] stands greater than 5 µM; under `C=CCN(C(=O)c1ccc2sc(-c3ccnc(N)n3)c(C)c2c1)C1CCCCC1` [Example 503, Cc1c(sc2ccc(cc12)C(═O)N(CC═C)C3CCCCC3)-c4ccnc(N)n4], less than 5 µM. Regarding `COC(=O)C1CCN(C(=O)c2ccc3sc(-c4ccnc(N)n4)c(C)c3c2)CC1` [Example 504, COC(═O)C1CCN(CC1)C(═O)c2ccc3sc(c(C)c3c2)-c4ccnc(N)n4], the IC50 is greater than 5 µM. Then `Cc1c(-c2ccnc(N)n2)sc2ccc(C(=O)N(Cc3ccccc3)C(C)C)cc12` [Example 505, CC(C)N(Cc1ccccc1)C(═O)c2ccc3sc(c(C)c3c2)-c4ccnc(N)n4], with less than 5 µM. Turning to `Cc1c(-c2ccnc(N)n2)sc2ccc(C(=O)N(CCO)Cc3ccccc3)cc12` [Example 506, Cc1c(sc2ccc(cc12)C(═O)N(CCO)Cc3ccccc3)-c4ccnc(N)n4], the 50% inhibitory concentration (IC50) is less than 5 µM.

Take `Cc1c(-c2ccnc(N)n2)sc2ccc(C(=O)N(C)CC(O)c3ccccc3)cc12` (centres unmarked) [Example 507, CN(CC(O)c1ccccc1)C(═O)c2ccc3sc(c(C)c3c2)-c4ccnc(N)n4]: the IC50 was less than 5 µM. Then `CCOC(=O)C1CCN(C(=O)c2ccc3sc(-c4ccnc(N)n4)c(C)c3c2)CC1` [Example 509, CCOC(═O)C1CCN(CC1)C(═O)c2ccc3sc(c(C)c3c2)-c4ccnc(N)n4], with greater than 5 µM; and `CCOC(=O)C1CCCN(C(=O)c2ccc3sc(-c4ccnc(N)n4)c(C)c3c2)C1` (centres unmarked) [Example 510, CCOC(═O)C1CCCN(C1)C(═O)c2ccc3sc(c(C)c3c2)-c4ccnc(N)n4], with less than 5 µM; and `CCOC(=O)N1CCN(C(=O)c2ccc3sc(-c4ccnc(N)n4)c(C)c3c2)CC1` [Example 511, CCOC(═O)N1CCN(CC1)C(═O)c2ccc3sc(c(C)c3c2)-c4ccnc(N)n4], with greater than 5 µM.

As for `Cc1c(-c2ccnc(N)n2)sc2ccc(C(=O)N(CCC#N)Cc3cccnc3)cc12` [Example 512, Cc1c(sc2ccc(cc12)C(═O)N(CCC#N)Cc3cccnc3)-c4ccnc(N)n4], the IC50 is less than 5 µM. Under `Cc1c(-c2ccnc(N)n2)sc2ccc(C(=O)N3CCN(c4ccccc4)CC3)cc12` [Example 513, Cc1c(sc2ccc(cc12)C(═O)N3CCN(CC3)c4ccccc4)-c5ccnc(N)n5] stands less than 5 µM; under `Cc1c(-c2ccnc(N)n2)sc2ccc(C(=O)N3CCN(c4ccccn4)CC3)cc12` [Example 514, Cc1c(sc2ccc(cc12)C(═O)N3CCN(CC3)c4ccccn4)-c5ccnc(N)n5], greater than 5 µM. Under `CCCCN(Cc1ccccc1)C(=O)c1ccc2sc(-c3ccnc(N)n3)c(C)c2c1` [Example 515, CCCCN(Cc1ccccc1)C(═O)c2ccc3sc(c(C)c3c2)-c4ccnc(N)n4] stands greater than 5 µM. For the compound `Cc1c(-c2ccnc(N)n2)sc2ccc(C(=O)N(CCO)[C@H](C)c3ccccc3)cc12` [Example 516, C[C@@H](N(CCO)C(═O)c1ccc2sc(c(C)c2c1)-c3ccnc(N)n3)c4ccccc4], the IC50 is less than 5 µM. Under `Cc1c(-c2ccnc(N)n2)sc2ccc(C(=O)N(CCCO)Cc3ccccn3)cc12` [Example 517, Cc1c(sc2ccc(cc12)C(═O)N(CCCO)Cc3ccccn3)-c4ccnc(N)n4] stands less than 5 µM.

Take `Cc1c(-c2ccnc(N)n2)sc2ccc(C(=O)N(C)CC(O)c3ccc(O)cc3)cc12` (centres unmarked) [Example 518, CN(CC(O)c1ccc(O)cc1)C(═O)c2ccc3sc(c(C)c3c2)-c4ccnc(N)n4]: the IC50 is less than 5 µM. Then `Cc1c(-c2ccnc(N)n2)sc2ccc(C(=O)N3CCN(C4CCCCC4)CC3)cc12` [Example 519, Cc1c(sc2ccc(cc12)C(═O)N3CCN(CC3)C4CCCCC4)-c5ccnc(N)n5], with greater than 5 µM.

Consider `Cc1c(-c2ccnc(N)n2)sc2ccc(C(=O)N3CCC(Cc4ccccc4)CC3)cc12` [Example 520, Cc1c(sc2ccc(cc12)C(═O)N3CCC(CC3)Cc4ccccc4)-c5ccnc(N)n5], for which the IC50 is greater than 5 µM. Under `Cc1c(-c2ccnc(N)n2)sc2ccc(C(=O)N3CCN(Cc4ccccc4)CC3)cc12` [Example 521, Cc1c(sc2ccc(cc12)C(═O)N3CCN(CC3)Cc4ccccc4)-c5ccnc(N)n5] stands greater than 5 µM.

Regarding `Cc1c(-c2ccnc(N)n2)sc2ccc(C(=O)N3CCCN(Cc4ccccc4)CC3)cc12` [Example 522, Cc1c(sc2ccc(cc12)C(═O)N3CCCN(CC3)Cc4ccccc4)-c5ccnc(N)n5], the IC50 was less than 5 µM. Then `Cc1c(-c2ccnc(N)n2)sc2ccc(C(=O)N3CCN(c4ccc(O)cc4)CC3)cc12` [Example 523, Cc1c(sc2ccc(cc12)C(═O)N3CCN(CC3)c4ccc(O)cc4)-c5ccnc(N)n5], with less than 5 µM. Then `Cc1c(-c2ccnc(N)n2)sc2ccc(C(=O)N(CCN(C)C)Cc3ccccc3)cc12` [Example 524, CN(C)CCN(Cc1ccccc1)C(═O)c2ccc3sc(c(C)c3c2)-c4ccnc(N)n4], with less than 5 µM; and `Cc1c(-c2ccnc(N)n2)sc2ccc(C(=O)N3CCN(c4ccccc4F)CC3)cc12` [Example 525, Cc1c(sc2ccc(cc12)C(═O)N3CCN(CC3)c4ccccc4F)-c5ccnc(N)n5], with greater than 5 µM. Regarding `Cc1c(-c2ccnc(N)n2)sc2ccc(C(=O)N3CCN(c4ccc(F)cc4)CC3)cc12` [Example 526, Cc1c(sc2ccc(cc12)C(═O)N3CCN(CC3)c4ccc(F)cc4)-c5ccnc(N)n5], the 50% inhibitory concentration (IC50) was less than 5 µM.

`Cc1c(-c2ccnc(N)n2)sc2ccc(C(=O)N3CCN(CC4CCCCC4)CC3)cc12` [Example 527, Cc1c(sc2ccc(cc12)C(═O)N3CCN(CC3)CC4CCCCC4)-c5ccnc(N)n5]: the IC50 is greater than 5 µM. Then `Cc1c(-c2ccnc(N)n2)sc2ccc(C(=O)N(C)C[C@H](O)c3ccc(O)c(O)c3)cc12` [Example 528, CN(C[C@H](O)c1ccc(O)c(O)c1)C(═O)c2ccc3sc(c(C)c3c2)-c4ccnc(N)n4], with less than 5 µM; and `CCOC(=O)CC1C(=O)NCCN1C(=O)c1ccc2sc(-c3ccnc(N)n3)c(C)c2c1` (centres unmarked) [Example 529, CCOC(═O)CC1N(CCNC1═O)C(═O)c2ccc3sc(c(C)c3c2)-c4ccnc(N)n4], with less than 5 µM. As to `Cc1c(-c2ccnc(N)n2)sc2ccc(C(=O)N3CCN(C(=O)OC(C)(C)C)CC3)cc12` [Example 530, Cc1c(sc2ccc(cc12)C(═O)N3CCN(CC3)C(═O)OC(C)(C)C)-c4ccnc(N)n4], the IC50 is greater than 5 µM. Then `Cc1c(-c2ccnc(N)n2)sc2ccc(C(=O)N3CCC(NC(=O)OC(C)(C)C)C3)cc12` (centres unmarked) [Example 531, Cc1c(sc2ccc(cc12)C(═O)N3CCC(C3)NC(═O)OC(C)(C)C)-c4ccnc(N)n4], with less than 5 µM. Under `Cc1c(-c2ccnc(N)n2)sc2ccc(C(=O)N3CCN(c4ccccc4C#N)CC3)cc12` [Example 532, Cc1c(sc2ccc(cc12)C(═O)N3CCN(CC3)c4ccccc4C#N)-c5ccnc(N)n5] stands greater than 5 µM; under `Cc1c(-c2ccnc(N)n2)sc2ccc(C(=O)N3CCN(c4ccc(C#N)cn4)CC3)cc12` [Example 533, Cc1c(sc2ccc(cc12)C(═O)N3CCN(CC3)c4ccc(cn4)C#N)-c5ccnc(N)n5], less than 5 µM; under `Cc1cccc(N2CCN(C(=O)c3ccc4sc(-c5ccnc(N)n5)c(C)c4c3)CC2)c1C` [Example 534, Cc1cccc(N2CCN(CC2)C(═O)c3ccc4sc(c(C)c4c3)-c5ccnc(N)n5)c1C], greater than 5 µM.

`Cc1cccc(N2CCN(C(=O)c3ccc4sc(-c5ccnc(N)n5)c(C)c4c3)CC2C)c1` (centres unmarked) [Example 535, CC1CN(CCN1c2cccc(C)c2)C(═O)c3ccc4sc(c(C)c4c3)-c5ccnc(N)n5]: the IC50 was greater than 5 µM.

For the compound `Cc1c(-c2ccnc(N)n2)sc2ccc(C(=O)N3CCN(CCc4ccccc4)CC3)cc12` [Example 536, Cc1c(sc2ccc(cc12)C(═O)N3CCN(CC3)CCc4ccccc4)-c5ccnc(N)n5], the IC50 is less than 5 µM.

Take `Cc1ccc(N2CCN(C(=O)c3ccc4sc(-c5ccnc(N)n5)c(C)c4c3)CC2)cc1C` [Example 537, Cc1ccc(cc1C)N2CCN(CC2)C(═O)c3ccc4sc(c(C)c4c3)-c5ccnc(N)n5]: the IC50 was greater than 5 µM. Under `Cc1ccc(N2CCN(C(=O)c3ccc4sc(-c5ccnc(N)n5)c(C)c4c3)CC2)c(C)c1` [Example 538, Cc1ccc(N2CCN(CC2)C(═O)c3ccc4sc(c(C)c4c3)-c5ccnc(N)n5)c(C)c1] stands greater than 5 µM; under `Cc1ccc(C)c(N2CCN(C(=O)c3ccc4sc(-c5ccnc(N)n5)c(C)c4c3)CC2)c1` [Example 539, Cc1ccc(C)c(c1)N2CCN(CC2)C(═O)c3ccc4sc(c(C)c4c3)-c5ccnc(N)n5], greater than 5 µM. Under `COc1ccc(N2CCN(C(=O)c3ccc4sc(-c5ccnc(N)n5)c(C)c4c3)CC2)cc1` [Example 540, COc1ccc(cc1)N2CCN(CC2)C(═O)c3ccc4sc(c(C)c4c3)-c5ccnc(N)n5] stands less than 5 µM; under `COc1ccccc1N1CCN(C(=O)c2ccc3sc(-c4ccnc(N)n4)c(C)c3c2)CC1` [Example 541, COc1ccccc1N2CCN(CC2)C(═O)c3ccc4sc(c(C)c4c3)-c5ccnc(N)n5], greater than 5 µM. For the compound `COc1cccc(N2CCN(C(=O)c3ccc4sc(-c5ccnc(N)n5)c(C)c4c3)CC2)c1` [Example 542, COc1cccc(c1)N2CCN(CC2)C(═O)c3ccc4sc(c(C)c4c3)-c5ccnc(N)n5], the IC50 was greater than 5 µM.
